Reference: US10781224B2, “Bis(oxymethyl)phosphinic acid and biogenic metal salts thereof as regulators of plant growth and development” (priority 2016, dated 2020)

Columns and labels:
[1] = tested on: winter wheat (Vershin variety); experiment: Winter wheat seed treatment with BHMPA salts: germinating power (length and mass of roots and sprouts); assay type: in vivo
In short: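 Seeds (50 per Petri dish on two layers of filter paper) soaked 1 h in BHMPA or its Ca, Mg, Na, Co, Mn, Cu or Zn salts at 1·10^−6-1·10^−12%, with water controls. Germination energy read on day 4, germination on day 8 (wheat) or day 7 (rice, corn), as % means of four replicates. Germinating power taken as root and sprout length plus wet and dry mass per 100 seedlings.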

[2] = tested on: corn (Krasnodar 385 MV variety); experiment: Corn seed treatment with BHMPA salts: germination energy and germination rate; assay type: in vivo
In short: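 Corn, winter wheat and rice seeds (50 per dish, on filter paper) were soaked for 1 h in BHMPA or its metal salts at 1·10^−6-1·10^−12%, with water as control. Germination energy was read on day 4 and germination rate on day 8 for wheat and day 7 for rice and corn, following GOST 12038-84, as the mean of four replicates.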

[3] = comparative study, 1·10^−9% solution
[4] = comparative study vs Melaphen, 1·10^−9% solution

O.O.O=P([O-])(CO)CO.O=P([O-])(CO)CO.[Mn+2] [Mn-salt, Manganese BHMPA Salt]
Length, root ([1]; 1·10^−6% solution): 2.8 cm | Length, root, + % to control ([1]; 1·10^−6% solution): −7% | Length, sprout ([1]; 1·10^−6% solution): 3.4 cm | Length, sprout, + % to control ([1]; 1·10^−6% solution): −5.5% | Mass, dry, root ([1]; 1·10^−6% solution): 0.32 g/100 plantlings | Mass, dry, root, + % to control ([1]; 1·10^−6% solution): −2% | Mass, dry, sprout ([1]; 1·10^−6% solution): 0.44 g/100 plantlings | Mass, dry, sprout, + % to control ([1]; 1·10^−6% solution): −10% | Mass, wet, root ([1]; 1·10^−6% solution): 1.38 g/100 plantlings | Mass, wet, root, + % to control ([1]; 1·10^−6% solution): −9% | Mass, wet, sprout ([1]; 1·10^−6% solution): 3.37 g/100 plantlings | Mass, wet, sprout, + % to control ([1]; 1·10^−6% solution): −6% | germinating power results vs control ([1]; 1·10^−6% solution): lower than those of the control | Length, root ([1]; 1·10^−7% solution): 3.8 cm | Length, root, + % to control ([1]; 1·10^−7% solution): 27% | Length, sprout ([1]; 1·10^−7% solution): 4.8 cm | Length, sprout, + % to control ([1]; 1·10^−7% solution): 33% | Mass, dry, root ([1]; 1·10^−7% solution): 0.50 g/100 plantlings | Mass, dry, root, + % to control ([1]; 1·10^−7% solution): 35% | Mass, dry, sprout ([1]; 1·10^−7% solution): 0.58 g/100 plantlings | Mass, dry, sprout, + % to control ([1]; 1·10^−7% solution): 18% | Mass, wet, root ([1]; 1·10^−7% solution): 1.74 g/100 plantlings | Mass, wet, root, + % to control ([1]; 1·10^−7% solution): 14.5% | Mass, wet, sprout ([1]; 1·10^−7% solution): 3.84 g/100 plantlings | Mass, wet, sprout, + % to control ([1]; 1·10^−7% solution): 7% | Length, root ([1]; 1·10^−8% solution): 4.4 cm | Length, root, + % to control ([1]; 1·10^−8% solution): 47% | Length, sprout ([1]; 1·10^−8% solution): 6.0 cm | Length, sprout, + % to control ([1]; 1·10^−8% solution): 67% | Mass, dry, root ([1]; 1·10^−8% solution): 0.53 g/100 plantlings | Mass, dry, root, + % to control ([1]; 1·10^−8% solution): 43% | Mass, dry, sprout ([1]; 1·10^−8% solution): 0.67 g/100 plantlings | Mass, dry, sprout, + % to control ([1]; 1·10^−8% solution): 37% | Mass, wet, root ([1]; 1·10^−8% solution): 2.09 g/100 plantlings | Mass, wet, root, + % to control ([1]; 1·10^−8% solution): 37.5% | Mass, wet, sprout ([1]; 1·10^−8% solution): 4.52 g/100 plantlings | Mass, wet, sprout, + % to control ([1]; 1·10^−8% solution): 25.5% | Length, root ([1]; 1·10^−9% solution): 4.6 cm | Length, root, + % to control ([1]; 1·10^−9% solution): 53% | Length, sprout ([1]; 1·10^−9% solution): 7.9 cm | Length, sprout, + % to control ([1]; 1·10^−9% solution): 119% | Mass, dry, root ([1]; 1·10^−9% solution): 0.62 g/100 plantlings | Mass, dry, root, + % to control ([1]; 1·10^−9% solution): 67.5% | Mass, dry, sprout ([1]; 1·10^−9% solution): 0.84 g/100 plantlings | Mass, dry, sprout, + % to control ([1]; 1·10^−9% solution): 71% | Mass, wet, root ([1]; 1·10^−9% solution): 3.00 g/100 plantlings | Mass, wet, root, + % to control ([1]; 1·10^−9% solution): 97% | Mass, wet, sprout ([1]; 1·10^−9% solution): 5.09 g/100 plantlings | Mass, wet, sprout, + % to control ([1]; 1·10^−9% solution): 41% | Length, root ([1]; 1·10^−10% solution): 4.5 cm | Length, root, + % to control ([1]; 1·10^−10% solution): 50% | Length, sprout ([1]; 1·10^−10% solution): 7.1 cm | Length, sprout, + % to control ([1]; 1·10^−10% solution): 97% | Mass, dry, root ([1]; 1·10^−10% solution): 0.57 g/100 plantlings | Mass, dry, root, + % to control ([1]; 1·10^−10% solution): 54% | Mass, dry, sprout ([1]; 1·10^−10% solution): 0.80 g/100 plantlings | Mass, dry, sprout, + % to control ([1]; 1·10^−10% solution): 63% | Mass, wet, root ([1]; 1·10^−10% solution): 2.16 g/100 plantlings | Mass, wet, root, + % to control ([1]; 1·10^−10% solution): 142% | Mass, wet, sprout ([1]; 1·10^−10% solution): 4.60 g/100 plantlings | Mass, wet, sprout, + % to control ([1]; 1·10^−10% solution): 28% | Length, root ([1]; 1·10^−11% solution): 4.4 cm | Length, root, + % to control ([1]; 1·10^−11% solution): 47% | Length, sprout ([1]; 1·10^−11% solution): 6.1 cm | Length, sprout, + % to control ([1]; 1·10^−11% solution): 69% | Mass, dry, root ([1]; 1·10^−11% solution): 0.52 g/100 plantlings | Mass, dry, root, + % to control ([1]; 1·10^−11% solution): 40.5% | Mass, dry, sprout ([1]; 1·10^−11% solution): 0.75 g/100 plantlings | Mass, dry, sprout, + % to control ([1]; 1·10^−11% solution): 53% | Mass, wet, root ([1]; 1·10^−11% solution): 1.90 g/100 plantlings | Mass, wet, root, + % to control ([1]; 1·10^−11% solution): 34% | Mass, wet, sprout ([1]; 1·10^−11% solution): 4.00 g/100 plantlings | Mass, wet, sprout, + % to control ([1]; 1·10^−11% solution): 11% | Length, root ([1]; 1·10^−12% solution): 3.6 cm | Length, root, + % to control ([1]; 1·10^−12% solution): 20% | Length, sprout ([1]; 1·10^−12% solution): 5.2 cm | Length, sprout, + % to control ([1]; 1·10^−12% solution): 44% | Mass, dry, root ([1]; 1·10^−12% solution): 0.40 g/100 plantlings | Mass, dry, root, + % to control ([1]; 1·10^−12% solution): 8% | Mass, dry, sprout ([1]; 1·10^−12% solution): 0.69 g/100 plantlings | Mass, dry, sprout, + % to control ([1]; 1·10^−12% solution): 31% | Mass, wet, root ([1]; 1·10^−12% solution): 1.52 g/100 plantlings | Mass, wet, root, + % to control ([1]; 1·10^−12% solution): 0% | Mass, wet, sprout ([1]; 1·10^−12% solution): 3.48 g/100 plantlings | Mass, wet, sprout, + % to control ([1]; 1·10^−12% solution): −3% | Length, root [1, 3]: 9.8 cm | Length, root, + % to control [1, 3]: 13% | Length, sprout [1, 3]: 6.7 cm | Length, sprout, + % to control [1, 3]: 8% | Mass, dry, root [1, 3]: 0.66 g/100 plantlings | Mass, dry, root, + % to control [1, 3]: 6% | Mass, dry, sprout [1, 3]: 0.55 g/100 plantlings | Mass, dry, sprout, + % to control [1, 3]: 8% | Mass, wet, root [1, 3]: 5.69 g/100 plantlings | Mass, wet, root, + % to control [1, 3]: 57% | Mass, wet, sprout [1, 3]: 4.97 g/100 plantlings | Mass, wet, sprout, + % to control [1, 3]: 25% | Germination energy ([2]; 1·10^−6% solution): 81.0% | Germination rate ([2]; 1·10^−6% solution): 83.3% | Germination energy ([2]; 1·10^−7% solution): 82.3% | Germination rate ([2]; 1·10^−7% solution): 85.0% | Germination energy ([2]; 1·10^−8% solution): 84.7% | Germination rate ([2]; 1·10^−8% solution): 87.5% | Germination energy ([2]; 1·10^−9% solution): 87.7% | Germination rate ([2]; 1·10^−9% solution): 88.7% | Germination rate ([2]; 1·10^−9% solution, listed as Mn): 90.0% | Germination energy ([2]; 1·10^−10% solution): 85.0% | Germination rate ([2]; 1·10^−10% solution): 87.5% | Germination energy ([2]; 1·10^−11% solution): 82.7% | Germination rate ([2]; 1·10^−11% solution): 85.3% | Germination energy ([2]; 1·10^−12% solution): 80.3% | Germination rate ([2]; 1·10^−12% solution): 83.0% | Germination energy [2, 4]: 87.3% | Germination rate [2, 4]: 95.0%
